These results are taken from patent US6426202B1, “Nystatin-resistant Aspergillus terreus CLS 247-13, KCTC 0673BP for preparing triol heptanoic acid employing the same” (priority 1999, dated 2002).

The subject of experiment [1] is mutant strain Aspergillus terreus CLS247-13. Put plainly: Minimal inhibitory concentration of nystatin, mutant strain. The class given is cell-based. Here is the method:
(§1) After incubating the culture in a liquid minimal medium containing nystatin for 1.5-3 hours, it was washed with saline solution, concentrated, diluted properly, and spreaded onto solid minimal medium containing 150 μg/ml of nystatin, and then the resultant was incubated at 28° C. for 8-15 days to isolate viable mutant strains. The isolated mutant strains resistant to nystatin, showing various morphological characteristics, were subcultured on solid minimal media containing increasing concentrations of nystatin (i.e., 150, 160, 170, 180, 190 and 200 […]) to select mutants showing increased resistance. The nystatin-resistant mutants thus obtained were incubated in an agar slant medium for 15-20 days. The spores formed were recovered in a 20% glycerin solution and subjected to liquid culture as disclosed in Example 2 below. As a result, the productivity of mevinolinic acid decreased and a variety of its analogues appeared. The mutant showing a high productivity of triol heptanoic acid of at least 11.5 g/L was selected and named ‘Aspergillus terreus CLS247-13’. Aspergillus terreus CLS247-13 maintained morphological characteristics, resistance to nystatin and high productivity of triol heptanoic acid constantly on a solid minimal medium containing 2 g/L of yeast extract for 10 generations. […]

For experiment [2], the system named is parent strain Aspergillus terreus CLS216-7. Put plainly: Minimal inhibitory concentration of nystatin, parent strain. The class given is cell-based. The settings on record: parent strain CLS216-7. Here is the method:
as §1

Regarding `C[C@@H]1[C@H](O)[C@@H](C)/C=C/C=C/CC/C=C/C=C/C=C/C=C/C(O[C@H]2O[C@H](C)[C@@H](O)[C@H](N)[C@@H]2O)CC2O[C@](O)(CC(O)C(O)CCC(O)CC(O)CC(O)CC(=O)O[C@H]1C)CC(O)C2C(=O)O` (stereo partly drawn) [nystatin], the “Minimal inhibitory conc. of nystatin” value is “≦200 μg/ml” in experiment [1] (mutant strain CLS247-13) and “≦25 μg/ml” in experiment [2]. Further, the “increase of minimal inhibitory concentration of nystatin (resistance to nystatin) compared with parent strain” value in experiment [1] (mutant strain CLS247-13 compared with parent strain CLS216-7) is reported as 8 fold.
